Laboratory results as given in US10945972B2, “Particulate materials” (Nektar Therapeutics, priority 2002, dated 2021).
Where a name gives a salt, the structure may show the parent alone. Blank lines part the entries; values can stand above or below the molecule they belong to.

Experiments:
Format in all cases: physicochemical
[1] = Inverse gas chromatography surface energy (Example 1); conditions: 303K; for ΔGA (kJ/mol) Chloroform: probe chloroform; for ΔGA (kJ/mol) Toluene: probe toluene; for ΔGA (kJ/mol) Acetone: probe acetone; for ΔGA (kJ/mol) Dioxane: probe dioxane; for ΔGA (kJ/mol) Ethyl acetate: probe ethyl acetate
From the text: For TBS and FHBr powders, IGC was done using a Hewlett Packard Series 6890 instrument which was specifically modified for IGC measurements by Surface Measurement Systems Ltd (Manchester, UK). The IGC method is described in detail by Tong et al. 2001. (Tong H. H. Y., B. Y. Shekunov, P. York, A. H. L. Chow, 2001. Pharm. Res. 18, 852.) Triplicate measurements in separate packed columns were made. […] The γS^D and ΔGA values were obtained at 303K.

[2] = Particle size by AeroSizer time-of-flight (Example 1); conditions: aerodynamic-equivalent volume mean diameter
Protocol: (§1) PSD measurements were performed using firstly, AEROSIZER® time-of-flight instrument equipped with AERO-[…]® (TSI Inc., Minneapolis. USA) and secondly, laser diffraction sensor Helos with dry-powder air-dispersion system Rodos (Sympatec GmbH. Germany). The volume mean particle diameter, VMD, was obtained for both instruments using software options. In the general case of non-spherical particles, these instruments cannot provide the exact value of VMD, however, the time-of-flight technique gives an aerodynamic-equivalent particle diameter, whereas the laser diffraction method provides the geometric projection-equivalent diameter. These diameters afford the complementary information on PSD and therefore can be used for comparative size analysis.

[3] = Particle size by Helos/Rodos laser diffraction (Example 1); conditions: geometric projection-equivalent volume mean diameter
Protocol: as §1

[4] = Isothermal microcalorimetry, TAM with RH ramp (Example 8); conditions: 25° C., RH ramp 0 to 90% at 3% RH/hr
Protocol: A Thermal Activity Monitor (TAM, model 2277; Thermometric A B, Jrflla, Sweden) was used to measure the calorimetric heat flow (μW) vs. % RH profile of each sample. A RH-perfusion cell (Model 2255-120) accessory for the TAM was used to control RH within the sample vessel. The carrier gas, dry N2, was flowed at a constant rate (1.48 cm^3/min). All experiments were performed at 25° C. About 100 to 105 mg accurately weighed of each powder were placed in a stainless steel ampoule, attached to the RH perfusion cell, and then dried under 0% RH until a stable heat flow signal was reached (e.g., a signal within the range of −1 to +1 μW). The RH was then increased in a linear ramp from 0 to 90% over the following 30 hours (i.e., 3% RH/hr). The heat flow arising from interactions of water vapor with the solid sample was measured as a function of time. Since RH changed with time in a linear fashion, the heat flow was also known as a function of RH.
The TAM measures the total heat flow in power, P, produced from either a physical or chemical reaction. In this study, the calorimetric power is proportional to the rate of moisture sorption or desorption, crystallization, and/or other processes. Exothermic events are measured as a deflection in the positive y-axis direction. Although crystallization is an exothermic process, it can be observed as a net endothermic process. During crystallization, there is an exotherm due to crystallization and a simultaneous endotherm due to desorption of previously sorbed moisture. The TAM profile gives the resultant of these processes.

[5] = Laser diffraction HELOS/RODOS of TBS (Example 8); conditions: for Sympatec D4, 3 (μm): 2 bar
Protocol: A small amount of TBS powder was analysed using a laser diffraction RODOS/VIBRI dispersing system (HELOS/RODOS, Sympatec GmbH, Clausthal-Zellerfeld, Germany). The instrument consisted of a laser sensor HELOS and a RODOS dry-powder air-dispersion system (Sympatec GmbH, Clausthal-Zellerfeld, Germany). Different measurement ranges of the laser sensor were provided by interchangeable objectives R1 (0.1-35 μm) and R2 (0.25-87.5 μm). The rate of powder dispersion was controlled by adjusting the pressure of the compressed air flow. A pressure of 2 bar was sufficient to achieve deagglomeration of primary particles without attrition.

[6] = Differential scanning calorimetry (Example 8); conditions: DSC, 10° C. min^−1
Protocol: Prior to sample analysis, a baseline was obtained which was used as a background. […] Temperature and enthalpy were calibrated with the standard materials indium (melting point=156.6° C.) and zinc (melting point=419.5° C.). Samples (1-10) were accurately weighed into pierced, crimped aluminium pans and heated at 10° C. min^−1 over a heating range of 25-290° C. under a nitrogen purge. A chiller unit was used in conjunction with the calorimeter to attain the lower temperatures.

[7] = Inverse gas chromatography of TBS (Example 8)
Protocol: An empty GC column was uniformly packed with the powder of interest (TBS). Pre-silanized commercially available straight glass columns of 30 cm length with a 3 mm internal diameter were used in this investigation. The silanation procedure was necessary to minimize active sites on the inner glass surfaces, which strongly interact with polar probes. Each column was packed at the detector end with a small amount of silanised glass wool, was clipped to a stand and powder was added through a glass funnel with the aid of a mechanical column packer (tapping) to improve powder flow and remove any air gaps. […] A. Hewlett Packard 6890 Series Gas Chromatograph (GC) (Hewlett Packard, Penna, USA) oven equipped with an autosampler was used to control the solvent temperature. The 6890 GC data acquisition system was used to record data from a thermal conductivity detector (TCD) and flame ionisation detector (FID) with the instrument modified for IGC by Surface Measurement Systems (SMS), Manchester, UK. The combination of detectors allowed sensitive analysis of both organic vapour elution and water (although RH was not raised above 0% for these experiments).
The whole system was fully automated by control software (SMS iGC Controller v1.3) and the data analyzed using SMS iGC Analysis macros. Prior to analysis, each column was equilibrated at 30° C. and 0% relative humidity (RH) for 5 hours by passing dry helium gas through the column. Helium gas was also used as the carrier gas. Hydrogen and compressed air flow rates were set at 40 and 450 ml min respectively for the FID. The chromatograph injection port was maintained at 80° C., TCD detector at 150° C. and the FID detector at 150° C. Column temperature was set at 30° C. throughout analysis. Data were obtained by flowing helium gas at 10 ml min^−1 through the sinalized glass column packed with a known weight of powdered material and injecting small amounts (concentration P/Po=0.05) of a range of probe vapors with different polarities. The retention times of the probes were measured using SMS iGC Controller v1.3 software, at infinite dilution or near zero surface coverage (equivalent to 10^−4-10^−7 μl of liquid) where retention is independent of the quantity of probe injected. For each sample, two columns were prepared and analysed by employing a method based on standard settings, which allows the precise control and measurement of experimental variables. This is essential in producing meaningful results. The data were used to calculate the dispersive and non-dispersive forces acting at TBS particle surfaces using the method developed by Schultz and co-workers (J. Schultz, L. Lavielle and C. Martin. The role of the interface in carbon fibre-epoxy composites, J. Adhesion, 23, 45-60 (1987)).

[8] = AEROSIZER time-of-flight of TBS (Example 8)
Protocol: The TBS samples were also analysed using an AEROSIZER™ (Amherst Process Instruments, Amherst, Mass., USA), provided with pulse jet disperser, the AERODISPERSER™, to introduce the powders to the instrument. The measurement range of the AEROSIZER™ is nominally from 0.2 to 200 μm of aerodynamic diameter with the standard 750 μm diameter tapered nozzle. The micronized and SEDS™ TBS samples were analyzed for 300 seconds in triplicate using normal deagglomeration conditions, feed rate (5000 particles per second) and medium shear force (0.5 psi).

[9] = AEROFLOW powder avalanching (Example 8); conditions: listed as Micronized
Protocol: An AEROFLOW™ powder avalanching apparatus (Amherst Process Instruments, API, Amherst, USA) was employed to analyze the dynamic avalanching behaviour of micronized and SC processed TBS samples. The AEROFLOW™ apparatus consists of a transparent rotating drum with a port at the front. A white light source is positioned in front of the drum and a masked array of photocells is behind the drum. To measure avalanching, 50 ml of the drug powder was added to the drum, which is about 15% of its total volume to ensure good powder mixing during the operation. As the drum rotates, the powder bed is carried upwards until an unstable state is reached and an avalanche occurs.
The time between successive avalanches was recorded by the projection of the light beam through the drum onto the photocell array. The photocells generated a voltage dependent on the amount of light falling on the cells and the area of unmasked photocells shielded from the light source by the powder. The voltage output (transmitted light intensity) was recorded by a computer, which translates the output as powder movement using a technique disclosed in B. H. Kaye. Characterizing the flowability of a powder using the concepts of fractal geometry and chaos theory, Part. Part. Charact. 14: 53-66 (1997). Each TBS sample was tested in duplicate and mean avalanche time and irregularity (scatter) of avalanches were recorded.

[10] = AFM adhesion force of particles (Example 10); conditions: for adhesion force per unit area: following correction for surface area; for initial adhesion force for individual particles: in 2H 3H perfluoropentane
Protocol: The example assessed the force of adhesion of particles of salbutamol sulfate produced using a SEDS™ processes compared to the same compound in micronized form. Conventional AFM analysis was used. Particles of the samples were mounted onto AFM probes and the adhesion force per unit area to a freshly cleaved highly oriented pyrolytic graphite substrate (HOP G, Agar Scientific, Essex, UK) in a liquid (2H 3H perfluoropentane) environment was determined. The contact area involved in the interaction was assessed and related to the force measurements.

[11] = listed as micronized terbutaline sulphate

Sympatec D4, 3 (μm) [5]: 3.22 μm
Enthalpy of Fusion [6]: 127.12 J/g
Enthalpy of Fusion ([6]; listed as TBS1): 127.12 J/g
KA [7]: 0.761
γs^D mJm^−2 ([7]; 30° C., 0% RH): 57.37 mJm^−2
−ΔGA^SP (kJ/mol) Acetone ([7]; probe acetone): 13.41 kJ/mol
−ΔGA^SP (kJ/mol) Ethyl acetate ([7]; probe ethyl acetate): 16.65 kJ/mol
−ΔGA^SP (kJ/mol) Toluene ([7]; probe toluene): 3.66 kJ/mol
Aerosizer D4, 3 (μm) [8]: 3.31 μm
Molecule: CC(C)(C)NCC(O)c1cc(O)cc(O)c1 (stereo not drawn) [TBS 1, terbutaline sulfate]
RH of thermal event in TAM profile [4]: No exothermic or endothermic peaks were observed

RH of thermal event in TAM profile ([4]; listed as micronized TBS): about 79 % RH
γs^D (mJ/m^2) [1]: 58.61 mJ/m^2
ΔGA (kJ/mol) Acetone [1]: 12.57 kJ/mol
ΔGA (kJ/mol) Chloroform [1]: 1.79 kJ/mol
ΔGA (kJ/mol) Dioxane [1]: 15.96 kJ/mol
ΔGA (kJ/mol) Ethyl acetate [1]: 16.01 kJ/mol
ΔGA (kJ/mol) Toluene [1]: 3.42 kJ/mol
Sympatec D4, 3 (μm) [5, 11]: 3.0 μm
particle size, 90% less than [5, 11]: less than 5 μm
VMD (μm) (Time of flight) [2]: 2.7 μm
Irregularity of flow ([9]; 100 sec/rev): 1.28 s
Mean time to avalanche ([9]; 100 sec/rev): 3.62 s
Irregularity of flow ([9]; 145 sec/rev): 2.39 s
Mean time to avalanche ([9]; 145 sec/rev): 5.72 s
VMD (μm) (laser diffraction) [3]: 3.04 μm
Molecule: CC(C)(C)NCC(O)c1cc(O)cc(O)c1 (stereo not drawn) [TSB Micronised, terbutaline sulphate, reference compound]

adhesion force per unit area [10]: 13.52 nN/μm^2
initial adhesion force for individual particles [10]: 4.21 nN
Molecule: salbutamol sulfate [SEDS™ produced material]

adhesion force per unit area [10]: 100.91 nN/μm^2
initial adhesion force for individual particles [10]: 15.77 nN
Molecule: salbutamol sulfate [micronized material, reference compound]

Continued, molecule first:

Molecule: CC(Cc1ccc(O)cc1)NCC(O)c1cc(O)cc(O)c1 (stereo not drawn) [FHBr Micronised, fenoterol hydrobromide, reference compound]
γs^D (mJ/m^2) ([1]; hydrobromide): 48.53 mJ/m^2
ΔGA (kJ/mol) Chloroform ([1]; hydrobromide): 0.69 kJ/mol
ΔGA (kJ/mol) Toluene ([1]; hydrobromide): 4.77 kJ/mol
VMD (μm) (Time of flight) [2]: 1.7 μm
VMD (μm) (laser diffraction) ([3]; hydrobromide): 2.34 μm

Molecule: CC(Cc1ccc(O)cc1)NCC(O)c1cc(O)cc(O)c1 (stereo not drawn) [FHBr SEDS, fenoterol hydrobromide]
γs^D (mJ/m^2) ([1]; hydrobromide): 49.87 mJ/m^2
ΔGA (kJ/mol) Acetone [1]: 13.15 kJ/mol
ΔGA (kJ/mol) Chloroform ([1]; hydrobromide): 0.63 kJ/mol
ΔGA (kJ/mol) Dioxane [1]: 15.32 kJ/mol
ΔGA (kJ/mol) Ethyl acetate [1]: 17.48 kJ/mol
ΔGA (kJ/mol) Toluene ([1]; hydrobromide): 3.86 kJ/mol
VMD (μm) (Time of flight) [2]: 1.7 μm
VMD (μm) (laser diffraction) ([3]; hydrobromide): 3.55 μm

Molecule: CC(C)(C)NCC(O)c1cc(O)cc(O)c1 (stereo not drawn) [TBS 3, terbutaline sulfate]
Sympatec D4, 3 (μm) [5]: 1.99 μm
Enthalpy of Fusion [6]: 31.35 J/g
Aerosizer D4, 3 (μm) [8]: 6.69 μm

Molecule: CC(C)(C)NCC(O)c1cc(O)cc(O)c1 (stereo not drawn) [TBS 4, terbutaline sulfate]
Sympatec D4, 3 (μm) [5]: 4.75 μm
Enthalpy of Fusion [6]: 40.98 J/g
Aerosizer D4, 3 (μm) [8]: 15.53 μm

Molecule: CC(C)(C)NCC(O)c1cc(O)cc(O)c1 (stereo not drawn) [TBS 5, terbutaline sulfate]
Sympatec D4, 3 (μm) [5]: 4.84 μm
Enthalpy of Fusion [6]: 57.69 J/g
Aerosizer D4, 3 (μm) [8]: 11.44 μm
